The text below walks through data of ChEMBL document CHEMBL1134391, “Design, synthesis, and structural analysis of influenza neuraminidase inhibitors containing pyrrolidine cores” (J Med Chem, 2001).

Experiment [1] has as its system influenza virus b. In words: Inhibitory activity was determined against Neuraminidase B/Memphis at 0.5 mM concentration.
In another experiment the target is Neuraminidase (Influenza B virus (strain B/Lee/1940), UniProt P03474). Nature of the experiment: Inhibitory activity was determined against Neuraminidase B/Memphis.
Experiment [2] has as its system influenza virus b. Nature of the experiment: Inhibitory activity was determined against Neuraminidase B/Memphis at 1 mM concentration.

Sequence of Neuraminidase (P03474 whole entry): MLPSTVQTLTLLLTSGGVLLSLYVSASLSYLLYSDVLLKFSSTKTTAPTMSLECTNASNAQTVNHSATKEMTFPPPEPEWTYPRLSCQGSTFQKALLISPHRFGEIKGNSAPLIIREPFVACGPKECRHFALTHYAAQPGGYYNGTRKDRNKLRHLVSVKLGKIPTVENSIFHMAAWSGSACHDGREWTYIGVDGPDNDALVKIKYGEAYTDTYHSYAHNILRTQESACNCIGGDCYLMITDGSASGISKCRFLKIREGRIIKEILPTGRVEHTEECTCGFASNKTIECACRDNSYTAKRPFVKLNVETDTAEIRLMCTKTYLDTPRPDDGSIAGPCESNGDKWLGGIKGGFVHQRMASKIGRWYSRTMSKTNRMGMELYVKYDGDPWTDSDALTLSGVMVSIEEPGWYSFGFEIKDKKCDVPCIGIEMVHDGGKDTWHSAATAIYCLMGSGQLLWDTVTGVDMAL

For orientation: inhibition means the change of the read-out against control, counted positive when it falls. `CCN(C(=O)N1C[C@@H](C(=O)O)[C@@H](N)[C@@H]1CNS(C)(=O)=O)C(C)C` returned an inhibition in the experiment on influenza virus b [1] of 38%.
As a reminder, the IC50 is the concentration that inhibits the measured activity by half. High values mean a need for much substance, low ones inhibition by little substance. `CCN(C(=O)N1C[C@@H](C(=O)O)[C@@H](N)[C@@H]1CNC(=O)C(F)(F)F)C(C)C` [A-192558]: on Neuraminidase, the IC50 turned out to be 8 µM.
At Neuraminidase, `CCN(C(=O)N1C[C@@H](C(=O)O)[C@@H](N)[C@@H]1CNC(C)=O)C(C)C` displayed an IC50 of 340 µM.
The molecule `CCC(=O)NC[C@H]1[C@H](N)[C@H](C(=O)O)CN1C(=O)N(CC)C(C)C` showed an inhibition with influenza virus b [2] of 26%.
